Tests used:
Assay type in all cases: biochemical
human κ opioid receptor = human κ opioid receptor (Homo sapiens, UniProt P41145); assay: κ-opioid receptor [35S]GTPγS functional assay, U-2 OS cells; set-up: expressed in transfected cells; host or cells: U-2 OS cells (in-house membranes); settings: for Emax: U2-OS cells, relative to U69,593
Description: Membranes from recombinant HEK-293 cells, CHO or U-2 OS cells expressing the recombinant human K opioid receptor (K) were prepared by lysing cells in ice cold hypotonic buffer (2.5 mM MgCl2, 50 mM HEPES, pH 7.4) (10 mL/10 cm dish) followed by homogenization with a tissue grinder/Teflon pestle. Functional [^35S]GTPγS binding assays were conducted as follows. K opioid receptor membrane solution was prepared by sequentially adding final concentrations of 0.026 μg/μl κ membrane protein (in-house), 10 μg/mL saponin, 3 μM GDP and 0.20 nM [^35S]GTPγS to binding buffer (100 mM NaCl, 10 mM MgCl2, 20 mM HEPES, pH 7.4) on ice. The prepared membrane solution (190 μl/well) was transferred to 96-shallow well polypropylene plates containing 10 μl of 20× concentrated stock solutions of agonist prepared in DMSO. Plates were incubated for 30 min at a temperature of about 25° C. with shaking. Reactions were terminated by rapid filtration onto 96-well Unifilter GF/B filter plates (Perkin Elmer, Shelton, Conn.) using a 96-well tissue harvester (Packard) and followed by three filtration washes with 200 μl ice-cold binding buffer (10 mM NaH2PO4, 10 mM Na2HPO4, pH 7.4). Filter plates were subsequently dried at 50° C. for 2-3 hours. Fifty μl/well scintillation cocktail (Perkin Elmer, Shelton, Conn.) was added and plates were counted in a Packard Top-Count for 1 min/well.
κ GTP EC50 is the concentration of a compound providing 50% of the maximal response for the compound at a κ receptor.
κ GTP Emax (%) is the maximal effect elicited by a compound relative to the effect elicited by U69,593.
(§1) In TABLE 2A, activity response of certain Compounds of the Invention at the μ- and κ-opioid receptors using U-2 OS cells was determined as described above for functional assays.

μ-opioid receptor [1] = biological target: T1, μ-opioid receptor (Homo sapiens, UniProt P35372); assay: μ-opioid receptor [35S]GTPγS functional assay, U-2 OS cells; set-up: host or cells: U-2 OS cells; settings: for Emax: U2-OS cells, relative to DAMGO
Description: (§2) [^35S]GTPγS functional assays were conducted using freshly thawed μ-receptor membranes prepared in-house from a cell line expressing recombinant opioid receptor in a HEK-293, CHO or U-2 OS cell background, or purchased from a commercial source (Perkin Elmer, Shelton, Conn.; or DiscovRx, Fremont, Calif.). Assay reactions were prepared by sequentially adding the following reagents to binding buffer (100 mM NaCl, 10 mM MgCl2, 20 mM HEPES, pH 7.4) on ice (final concentrations indicated): membrane protein (0.026 mg/mL), saponin ([…]), GDP ([…]) and [^35S]GTPγS (0.20 nM; Perkin Elmer, Shelton, Conn.). The prepared membrane solution (190 l/well) was transferred to 96-shallow well polypropylene plates containing 10 μl of 20× concentrated stock solutions of the agonist [D-Ala^2, N-methyl-Phe^4 Gly-ol^5]-enkephalin (DAMGO) prepared in dimethyl sulfoxide (DMSO). Plates were incubated for 30 min at about 25° C. with shaking. Reactions were terminated by rapid filtration onto 96-well Unifilter GF/B filter plates (Perkin Elmer, Shelton, Conn.) using a 96-well tissue harvester (Perkin Elmer, Shelton, Conn.) followed by three filtration washes with 200 μl of ice-cold wash buffer (10 mM NaH2PO4, 10 mM Na2HPO4, pH 7.4). Filter plates were subsequently dried at 50° C. for 2-3 hr. BetaScint scintillation cocktail (Perkin Elmer, Shelton, Conn.) was added (50 μl/well) and plates were counted using a Packard Top-Count for 1 min/well. Data were analyzed using the sigmoidal dose-response curve fitting functions in GraphPad PRISM v. 3.0, or an in-house function for non-linear, sigmoidal dose-response curve-fitting.
(§3) μ GTP EC50 is the concentration of a compound providing 50% of the maximal response for the compound at a μ-opioid receptor.
(§4) μ GTP Emax (%) is the maximal effect elicited by a compound relative to the effect elicited by DAMGO, a standard agonist. Generally, the μ GTP Emax (%) value measures the efficacy of a compound to treat or prevent pain or other Conditions.
as §1

μ-opioid receptor [2] = biological target: T1, μ-opioid receptor; assay: μ-opioid receptor [35S]GTPγS functional assay, HEK-293 or CHO cells; settings: for Emax: HEK-293 or CHO cells, relative to DAMGO
Description: as §2, §3, §4
In TABLE 2, activity response of certain Compounds of the Invention at the μ- and κ-opioid receptors using HEK-293 or CHO cells was determined as described above for functional assays.

T1 sequence (P35372 whole entry, species assumed): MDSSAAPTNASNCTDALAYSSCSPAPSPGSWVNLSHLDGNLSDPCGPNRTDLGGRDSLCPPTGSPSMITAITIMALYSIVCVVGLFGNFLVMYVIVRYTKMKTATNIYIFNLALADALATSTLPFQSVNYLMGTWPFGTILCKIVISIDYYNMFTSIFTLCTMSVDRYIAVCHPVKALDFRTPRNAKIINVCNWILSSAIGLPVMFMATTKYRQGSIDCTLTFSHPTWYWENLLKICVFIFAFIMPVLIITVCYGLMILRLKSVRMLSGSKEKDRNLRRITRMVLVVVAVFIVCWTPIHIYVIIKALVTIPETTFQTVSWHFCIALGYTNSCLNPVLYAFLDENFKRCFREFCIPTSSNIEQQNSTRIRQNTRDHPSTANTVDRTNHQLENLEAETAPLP
Chain of human κ opioid receptor (P41145 whole entry): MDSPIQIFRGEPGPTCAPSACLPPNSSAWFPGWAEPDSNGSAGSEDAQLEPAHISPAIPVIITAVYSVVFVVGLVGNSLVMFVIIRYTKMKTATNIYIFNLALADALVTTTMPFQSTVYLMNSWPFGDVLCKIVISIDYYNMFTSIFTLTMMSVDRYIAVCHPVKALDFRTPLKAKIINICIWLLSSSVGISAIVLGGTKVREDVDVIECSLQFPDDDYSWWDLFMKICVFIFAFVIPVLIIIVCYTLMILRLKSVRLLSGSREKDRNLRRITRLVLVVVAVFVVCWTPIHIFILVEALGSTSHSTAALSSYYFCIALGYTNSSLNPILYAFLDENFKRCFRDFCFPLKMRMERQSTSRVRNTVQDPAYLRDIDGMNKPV

Row | Structure (SMILES) | EC50 (human κ opioid receptor) [µM] | Emax (human κ opioid receptor) [%] | EC50 (μ-opioid receptor [1]) [µM] | Emax (μ-opioid receptor [1]) [%] | EC50 (μ-opioid receptor [2]) [µM] | Emax (μ-opioid receptor [2]) [%]
1 | CC(C)CCCC(=O)N[C@H]1C[C@@]2(O)[C@H]3Cc4ccc(O)cc4[C@@]2(CCN3CC2CC2)C[C@H]1O [Compound 62, N-((4bR,6R,7S,8aS,9R)-11-(cyclopropylmethyl)-3,6,8a-trihydroxy-6,7,8,8a,9,10-hexahydro-5H-9,4b-(epiminoethano)phenanthren-7-yl)-5-methylhexanamide] | 0.0174 ± 0.00146 | 90.2 ± 1.65 | 0.0433 ± 0.0056 | 60.3 ± 0.88 | 0.0547 ± 0.00452 | 23.3 ± 0.67
2 | COc1ccc2c(c1)[C@@]13CC[C@H](NC(=O)C(C)C)C[C@@]1(O)[C@@H](C2)N(CC1CC1)CC3 [Compound 45, N-((4bS,7S,8aS,9R)-11-(cyclopropylmethyl)-8a-hydroxy-3-methoxy-6,7,8,8a,9,10-hexahydro-5H-9,4b-(epiminoethano)phenanthren-7-yl)isobutyramide] | 0.0106 ± 0.0021 | 106 ± 1 | 0.072 ± 0.0159 | 71 ± 5.69 | 0.308 ± 0.122 | 15.3 ± 1.86
3 | O=C1C=C2[C@H]3Cc4ccc(O)cc4[C@]2(CC1)CCN3CC1CC1 [Compound 68, (4bS,9R)-11-(cyclopropylmethyl)-3-hydroxy-5,6,9,10-tetrahydro-7H-9,4b-(epiminoethano)phenanthren-7-one] | 0.00167 ± 9.9e-05 | 104 ± 2.31 | 0.00454 ± 0.00128 | 31.3 ± 1.33 | > 20 | 6 ± 3
4 | CC(C)CN[C@H]1CC[C@]23CCN(CC4CC4)[C@H](Cc4ccc(O)cc42)[C@]3(O)C1 [Compound 42, (4bS,7S,8aS,9R)-11-(cyclopropylmethyl)-7-(isobutylamino)-5,6,7,8,9,10-hexahydro-8aH-9,4b-(epiminoethano)phenanthrene-3,8a-diol] | 0.00025 ± 2.9e-05 | 110 | 0.00281 ± 0.00016 | 67.3 ± 2.85 | 0.0202 ± 0.00783 | 16.6 ± 1.63
5 | CC(C)C(=O)N[C@H]1C[C@H]2[C@H]3Cc4ccc(O)cc4[C@@]2(CCN3CC2CC2)C[C@H]1O [Compound 112, N-((4bS,6R,7S,8aR,9R)-11-(cyclopropylmethyl)-3,6-dihydroxy-6,7,8,8a,9,10-hexahydro-5H-9,4b-(epiminoethano)phenanthren-7-yl)isobutyramide] |  |  |  |  | 0.0667 ± 0.0275 | 8.61 ± 0.31
6 | COc1ccc2c(c1)[C@]13CCN(CC4CC4)[C@H](C2)[C@]12C[C@H](OCc1ccccc1)[C@H](C3)O2 [Compound 102, (4bR,6S,7S,8aS,9R)-7-(benzyloxy)-11-(cyclopropylmethyl)-3-methoxy-5,6,7,8,9,10-hexahydro-9,4b-(epiminoethano)-6,8a-epoxyphenanthrene] | 1.92 | 58.3 ± 0.67 | 0.47 ± 0.0699 | 42 ± 1.73 | 1.52 ± 0.465 | 10.5 ± 1.26
7 | CC(C)CC[C@H]1C[C@@]2(O)[C@H]3Cc4ccc(O)cc4[C@@]2(CCN3C)C[C@H]1O [Compound 109, (4bR,6R,7S,8aS,9R)-7-isopentyl-11-methyl-5,6,7,8,9,10-hexahydro-8aH-9,4b-(epiminoethano)phenanthrene-3,6,8a-triol] |  |  |  |  | 1.87 ± 0.203 | 41.1 ± 3.25
8 | Oc1ccc2c(c1)[C@]13CCN(CC4CC4)[C@H](C2)[C@]1(O)C[C@H](Cc1ccccc1)[C@H](O)C3 [Compound 103, (4bR,6R,7S,8aS,9R)-7-benzyl-11-(cyclopropylmethyl)-5,6,7,8,9,10-hexahydro-8aH-9,4b-(epiminoethano)phenanthrene-3,6,8a-triol] |  |  |  |  | > 20 | 1
9 | CC(C)CCCC(=O)O[C@@H]1C[C@]23CCN(CC4CC4)[C@H](Cc4ccc(O)cc42)[C@]3(O)C[C@@H]1N [Compound 117, (4bR,6R,7S,8aS,9R)-7-amino-11-(cyclopropylmethyl)-3,8a-dihydroxy-6,7,8,8a,9,10-hexahydro-5H-9,4b-(epiminoethano)phenanthren-6-yl 5-methylhexanoate] |  |  |  |  | 0.023 ± 0.00359 | 14.1 ± 1.2
10 | COc1ccc2c(c1)[C@]13CCN(C)[C@H](C2)[C@H]1[C@H](O)C[C@@H](OCCO)C3 [Compound 119, (4bS,6S,8R,8aS,9R)-6-(2-hydroxyethoxy)-3-methoxy-11-methyl-6,7,8,8a,9,10-hexahydro-5H-9,4b-(epiminoethano)phenanthren-8-ol] |  |  |  |  | > 20 | 24.2 ± 3.04
11 | CC(C)C(=O)N[C@H]1CC[C@]23CCN(CC4CC4)[C@H](Cc4ccc(O)cc42)[C@]3(O)C1 [Compound 46, N-((4bS,7S,8aS,9R)-11-(cyclopropylmethyl)-3,8a-dihydroxy-6,7,8,8a,9,10-hexahydro-5H-9,4b-(epiminoethano)phenanthren-7-yl)isobutyramide] | 0.0001 ± 2.1e-05 | 102 ± 5.24 | 0.00038 ± 0.00011 | 54 ± 6.03 | > 20 | 7.67 ± 3.48
12 | CN1CC[C@]23C[C@H](OCCO)C[C@@H](O)[C@@H]2[C@H]1Cc1ccc(O)cc13 [Compound 121, (4bS,6S,8R,8aS,9R)-6-(2-hydroxyethoxy)-11-methyl-6,7,8,8a,9,10-hexahydro-5H-9,4b-(epiminoethano)phenanthrene-3,8-diol] |  |  |  |  | 1.96 ± 0.876 | 16.6 ± 1.97
13 | CC(C)CCC(=O)N[C@H]1C[C@@]2(O)[C@H]3Cc4ccc(O)cc4[C@@]2(CCN3C)CC1O (stereo partly drawn) [Compound 105, 4-methyl-N-((4bR,7S,8aS,9R)-3,6,8a-trihydroxy-11-methyl-6,7,8,8a,9,10-hexahydro-5H-9,4b-(epiminoethano)phenanthren-7-yl)pentanamide] |  |  |  |  | 3.65 ± 0.294 | 77 ± 2.65
14 | CC(C)C(=O)N[C@H]1C[C@@]2(O)[C@H]3Cc4ccc(O)cc4[C@@]2(CCN3C)C[C@H]1O [Compound 104, N-((4bR,6R,7S,8aS,9R)-3,6,8a-trihydroxy-11-methyl-6,7,8,8a,9,10-hexahydro-5H-9,4b-(epiminoethano)phenanthren-7-yl)isobutyramide] |  |  |  |  | 15.5 ± 1.32 | 23 ± 1.53
15 | CN1CC[C@]23C[C@@H](O)[C@@H](NC(=O)c4ccccc4)C[C@@]2(O)[C@H]1Cc1ccc(O)cc13 [Compound 108, N-((4bR,6R,7S,8aS,9R)-3,6,8a-trihydroxy-11-methyl-6,7,8,8a,9,10-hexahydro-5H-9,4b-(epiminoethano)phenanthren-7-yl)benzamide] |  |  |  |  | 2.19 ± 0.211 | 48.4 ± 0.66

Reference: patent US20200148646A1, “6-S[…] 7-S[…] ANALOGS AND THE USE THEREOF” (Purdue Pharma, L.P., priority 2013, published 2020)
